Data on 19 molecules can be found in PubChem BioAssay AID292 (DTP/NCI, 2004).

The assay relates to B6C3F1 mice, ip Sarcoma M5076, median survival T/C. Kind of assay: NCI In Vivo Anticancer Drug Screen. Data for tumor model Sarcoma M5076 (intraperitoneal) in B6C3F1 mice. As to conditions: endpoint: median survival time, higher = longer survival. In short, it runs like this:
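Transplantable tumour in mice; compound-treated vs vehicle-treated groups. Read-out: survival. Value = treated/control ratio.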

[1] abbreviates: dose: 12.5 mg/kg/injection, schedule: Q04DX004 (ip), vehicle: water.
[2] abbreviates: dose: 50.0 mg/kg/injection, schedule: Q04DX004 (ip), vehicle: water.
The mark [3] stands for this setting: dose: 100.0 mg/kg/injection, schedule: Q04DX004 (ip), vehicle: water.
Where [4] appears, read: dose: 25.0 mg/kg/injection, schedule: Q04DX004 (ip), vehicle: saline with Tween-80.
The mark [5] stands for this setting: dose: 50.0 mg/kg/injection, schedule: Q04DX004 (ip), vehicle: saline with Tween-80.
Where [6] appears, read: dose: 100.0 mg/kg/injection, schedule: Q04DX004 (ip), vehicle: saline with Tween-80.
Setting [7] is: dose: 200.0 mg/kg/injection, schedule: Q04DX004 (ip), vehicle: saline with Tween-80.
Where [8] appears, read: dose: 400.0 mg/kg/injection, schedule: Q04DX004 (ip), vehicle: saline with Tween-80.
Setting [9] is: dose: 50.0 mg/kg/injection, schedule: Q04DX004 (ip), vehicle: Klucel (hydroxypropylcellulose) (HPC).
Setting [10] is: dose: 100.0 mg/kg/injection, schedule: Q04DX004 (ip), vehicle: Klucel (hydroxypropylcellulose) (HPC).
Setting [11] is: dose: 200.0 mg/kg/injection, schedule: Q04DX004 (ip), vehicle: Klucel (hydroxypropylcellulose) (HPC).
[12] abbreviates: dose: 12.5 mg/kg/injection, schedule: Q04DX004 (ip), vehicle: saline with Tween-80.
The mark [13] stands for this setting: dose: 12.5 mg/kg/injection, schedule: Q04DX004 (ip), vehicle: Klucel (hydroxypropylcellulose) (HPC).
[14] abbreviates: dose: 25.0 mg/kg/injection, schedule: Q04DX004 (ip), vehicle: Klucel (hydroxypropylcellulose) (HPC).

Values joined by “and” are separate entries in the source; they are usually repeats but may differ in a detail not shown here. Equal values may be shown once. Inconclusive results and toxic doses are left out.

As for `O=NNc1ccc2cccnc2n1`, the T/C is 104 % of control under setting [1]; 116 % of control (dose: 25.0 mg/kg/injection, schedule: Q04DX004 (ip), vehicle: water); 151 % of control under setting [2]; 151 % of control and 161 % of control under setting [3]; 174 % of control (dose: 200.0 mg/kg/injection, schedule: Q04DX004 (ip), vehicle: water).
For the molecule `Cc1c(/C=C/C(=O)O)no[n+]1[O-]`, the T/C runs as follows: under setting [4], 100 % of control; under setting [5], 101 % of control; under setting [6], 101 % of control; under setting [7], 101 % of control; under setting [8], 93 % of control.
As for `O=c1[nH]c(=O)n(C2CC(O)C(CO)O2)cc1C(F)(F)F` (stereo not drawn), the T/C reads like this: under setting [6], 113 % of control and 114 % of control; under setting [7], 109 % of control and 113 % of control; under setting [8], 110 % of control and 112 % of control; (dose: 800.0 mg/kg/injection, schedule: Q04DX004 (ip), vehicle: saline with Tween-80) 116 % of control; (dose: 1600.0 mg/kg/injection, schedule: Q04DX004 (ip), vehicle: saline with Tween-80) 116 % of control.
`N#CC1C(=O)NC(=O)C(C#N)C1C1C(=O)NC2CCCCC21` (stereo not drawn): the T/C was 93 % of control (dose: 43.75 mg/kg/injection, schedule: Q04DX004 (ip), vehicle: saline with Tween-80); 100 % of control (dose: 87.5 mg/kg/injection, schedule: Q04DX004 (ip), vehicle: saline with Tween-80); 95 % of control (dose: 175.0 mg/kg/injection, schedule: Q04DX004 (ip), vehicle: saline with Tween-80); 95 % of control (dose: 350.0 mg/kg/injection, schedule: Q04DX004 (ip), vehicle: saline with Tween-80).
Regarding `Cc1nc2cc[nH]n2c(=O)c1CCc1ccccc1`, the T/C reads like this: under setting [5], 107 % of control; under setting [6], 94 % of control; under setting [7], 96 % of control.
As to `N#CC1C(=O)NC(=O)C(C#N)C1c1ccc(Cl)cc1Cl` (stereo not drawn), the T/C is 93 % of control under setting [9]; 95 % of control under setting [10]; 100 % of control under setting [11]; 96 % of control (dose: 400.0 mg/kg/injection, schedule: Q04DX004 (ip), vehicle: Klucel (hydroxypropylcellulose) (HPC)).
For `CCOC(=O)NC1CCc2cc(OC)c(OC)c(OC)c2-c2ccc(OC)c(=O)cc21` (stereo not drawn), the T/C reads like this: (dose: 2.5 mg/kg/injection, schedule: Q04DX004 (ip), vehicle: Klucel (hydroxypropylcellulose) (HPC)) 150 % of control; (dose: 5.0 mg/kg/injection, schedule: Q04DX004 (ip), vehicle: Klucel (hydroxypropylcellulose) (HPC)) 183 % of control; (dose: 10.0 mg/kg/injection, schedule: Q04DX004 (ip), vehicle: Klucel (hydroxypropylcellulose) (HPC)) 176 % of control; (dose: 20.0 mg/kg/injection, schedule: Q04DX004 (ip), vehicle: Klucel (hydroxypropylcellulose) (HPC)) 161 % of control and 178 % of control.
Consider `COc1ccc2c(c1)-c1nn(CCCN(C)C)c3ccc([N+](=O)[O-])c(c13)N2`, for which the T/C is, setting by setting: (dose: 6.25 mg/kg/injection, schedule: Q04DX004 (ip), vehicle: water) 118 % of control; under setting [1], 120 % of control; under setting [2], 156 % of control and 170 % of control; under setting [3], 96 % of control.
Consider `CN(C)CCC(=O)C(=Cc1ccc(O)cc1)C(=O)CCN(C)C`, for which the T/C (dose: 25.0 mg/kg/injection, schedule: Q04DX004 (ip), vehicle: saline) was 103 % of control; the T/C (dose: 50.0 mg/kg/injection, schedule: Q04DX004 (ip), vehicle: saline) is 100 % of control; the T/C (dose: 100.0 mg/kg/injection, schedule: Q04DX004 (ip), vehicle: saline) was 104 % of control; the T/C (dose: 200.0 mg/kg/injection, schedule: Q04DX004 (ip), vehicle: saline) was 100 % of control.
Take `CN1c2ccccc2C(=O)N2C(=O)CCC21C` (stereo not drawn): the T/C is, setting by setting: (dose: 18.75 mg/kg/injection, schedule: Q04DX004 (ip), vehicle: saline with Tween-80) 100 % of control; (dose: 37.5 mg/kg/injection, schedule: Q04DX004 (ip), vehicle: saline with Tween-80) 100 % of control; (dose: 75.0 mg/kg/injection, schedule: Q04DX004 (ip), vehicle: saline with Tween-80) 102 % of control; (dose: 150.0 mg/kg/injection, schedule: Q04DX004 (ip), vehicle: saline with Tween-80) 101 % of control.
As for `C/C(=N\NC(=S)N1CC2CCC(CC2)C1)c1cccc(C)n1`, the T/C is, setting by setting: (dose: 6.25 mg/kg/injection, schedule: Q04DX004 (ip), vehicle: saline with Tween-80) 104 % of control and 107 % of control; under setting [12], 101 % of control and 106 % of control and 116 % of control; under setting [4], 104 % of control and 110 % of control and 115 % of control; under setting [5], 101 % of control and 107 % of control and 119 % of control.
Turning to `COC(=O)c1c(C(=O)OC)c2c(C)nn3ccc1n23`, the T/C under setting [12] was 96 % of control; the T/C under setting [4] was 97 % of control; the T/C under setting [5] is 96 % of control; the T/C under setting [6] was 104 % of control; the T/C under setting [7] is 93 % of control.
Consider `NC(=O)C1=NOC(C(N)=O)C1C1OC(CO)C(O)C1O` (stereo not drawn), for which the T/C runs as follows: (dose: 37.5 mg/kg/injection, schedule: Q04DX004 (ip), vehicle: water) 100 % of control; (dose: 75.0 mg/kg/injection, schedule: Q04DX004 (ip), vehicle: water) 98 % of control; (dose: 150.0 mg/kg/injection, schedule: Q04DX004 (ip), vehicle: water) 103 % of control; (dose: 300.0 mg/kg/injection, schedule: Q04DX004 (ip), vehicle: water) 106 % of control; (dose: 600.0 mg/kg/injection, schedule: Q04DX004 (ip), vehicle: water) 100 % of control.
In the case of `CC(/C=C/C1OC(=O)C=CC1C)=C\C(C)C/C=C/C(C)=C/C(C)C(=O)C(C)C(O)C(C)C/C(C)=C/C(=O)O` (stereo not drawn), the T/C (dose: 25.0 micrograms/kg/injection, schedule: Q04DX004 (ip), vehicle: saline + alcohol) is 118 % of control; the T/C (dose: 50.0 micrograms/kg/injection, schedule: Q04DX004 (ip), vehicle: saline + alcohol) is 150 % of control; the T/C (dose: 100.0 micrograms/kg/injection, schedule: Q04DX004 (ip), vehicle: saline + alcohol) is 123 % of control; the T/C (dose: 400.0 micrograms/kg/injection, schedule: Q04DX004 (ip), vehicle: saline + alcohol) was 177 % of control.
With `CNC(=O)Oc1ccc(S(=O)(=O)c2ccc(OC(=O)NC)cc2)cc1`, the T/C is 100 % of control under setting [4]; 96 % of control and 104 % of control under setting [5]; 96 % of control and 97 % of control under setting [6]; 100 % of control and 101 % of control under setting [7].
As to `O=S(=O)(c1cccc(N=C=S)c1)c1cccc(N=C=S)c1`, the T/C is 99 % of control under setting [13], 94 % of control under setting [14], 103 % of control under setting [9] and 99 % of control under setting [10].
Take `O=[N+]([O-])c1ccc([I+]c2ccccc2)cc1`: the T/C is, setting by setting: (dose: 6.25 mg/kg/injection, schedule: Q04DX004 (ip), vehicle: Klucel (hydroxypropylcellulose) (HPC)) 95 % of control; under setting [13], 109 % of control; under setting [14], 99 % of control; under setting [9], 106 % of control.
For `COc1cc([C@@H]2c3cc4c(cc3[C@@H](OC3OC5COC(C)OC5C(O)C3O)[C@H]3COC(=O)[C@H]23)OCO4)cc(OC)c1O` (stereo partly drawn), the T/C was 150 % of control (dose: 4.0 mg/kg/injection, schedule: Q04DX005 (ip), vehicle: saline); 157 % of control (dose: 8.0 mg/kg/injection, schedule: Q04DX004 (ip), vehicle: saline); 154 % of control (dose: 8.0 mg/kg/injection, schedule: Q04DX005 (ip), vehicle: saline); 153 % of control (dose: 16.0 mg/kg/injection, schedule: Q04DX004 (ip), vehicle: saline); 198 % of control (dose: 16.0 mg/kg/injection, schedule: Q04DX005 (ip), vehicle: saline); 172 % of control and 187 % of control (dose: 32.0 mg/kg/injection, schedule: Q04DX004 (ip), vehicle: saline). Moreover, the T/C (dose: 32.0 mg/kg/injection, schedule: Q04DX005 (ip), vehicle: saline) is 319 % of control.
Turning to `CCn1c(-c2ccc(OC(C)=O)cc2)c(C)c2cc(OC(C)=O)ccc21`, the T/C is 102 % of control under setting [14], 107 % of control under setting [9], 87 % of control under setting [10] and 90 % of control under setting [11].
